This passage reports RP-LC retention time results from the METLIN SMRT retention time set (Domingo-Almenara et al. 2019).

This data set can be described thus: gradient 5% acetonitrile 3 min, to 50% in 2 min, to 85% in 15 min, held 3 min, 100 µL/min. Particulars: column: Zorbax Extend-C18 2.1 x 50 mm; eluents: water / acetonitrile, 0.1% formic acid. Put shortly:
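Values are retention times taken from adduct peaks that software picked and an analyst inspected. The pure standards were run as mixtures of ~100 molecules on HPLC linked to a quadrupole time-of-flight mass spectrometer, in positive and negative ionization mode. A Zorbax Extend-C18 column (2.1 × 50 mm, 1.8 μm) was used at 100 μL/min with water and acetonitrile, each including 0.1% formic acid.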
The molecule `CCOc1ccc(-c2noc(Cn3ncn4nc(-c5ccc(F)cc5)cc4c3=O)n2)cc1OC` displayed an RP-LC retention time of 1070 s.

With `O=C(NCC(F)(F)F)c1ccc(=O)[nH]c1`, the RP-LC retention time worked out at 534 s.

Molecule `COc1ccccc1NC(=O)C1CCc2nc(N3CCCCC3)ncc2C1` (stereo not given) displayed an RP-LC retention time of 811 s.

Take `Cc1cccc(NC(=O)c2nc(N3CCSCC3)c3cnn(C)c3n2)c1`: the RP-LC retention time was found to be 901 s.

For the molecule `Cc1sc(-c2cc(C(F)(F)F)on2)cc1S(=O)(=O)NCCc1cccs1`, the RP-LC retention time worked out at 1140 s.

For the molecule `CCOC(=O)c1[nH]c(C)c(CCC(=O)N2CCC(C(=O)N3CCCC3)CC2)c1C`, the RP-LC retention time is 687 s.

For `CCOc1cccc2cc(C(=O)Nc3ccc4c(c3)C(=O)N(C)C4=O)oc12`, the RP-LC retention time came to 906 s.

`O=C(Cn1ccn(-c2cccc(Cl)c2)c(=O)c1=O)NCc1ccco1` came in with an RP-LC retention time of 641 s.

`CCn1c(=O)c(C)nc2cc(-c3noc(-c4cccc(C)c4)n3)ccc21` had an RP-LC retention time of 1190 s.

In the case of `Cc1nc(NCCC2=CCCCC2)nc(N2CCOCC2)c1[N+](=O)[O-]`, the RP-LC retention time came to 965 s.

Consider `CC(=O)N1CCC(C2CCN(S(=O)(=O)c3ccc(Cl)s3)C2)CC1` (stereo not given), for which the RP-LC retention time came out at 761 s.

Consider `O=C(Cn1nc2c(SC3CCCCC3)nccn2c1=O)N1CCN(c2ccccc2)CC1`, for which the RP-LC retention time was found to be 1110 s.

Molecule `COc1cccc(N2C(=O)C3N=NN(Cc4nc(-c5ccc(Cl)cc5)no4)C3C2=O)c1` (stereo not given) gave an RP-LC retention time of 1010 s.

`Fc1ccc(Nc2nc(N3CCOCC3)nc3[nH]ncc23)cc1` returned an RP-LC retention time of 601 s.

In turn, `Cc1noc(C)c1S(=O)(=O)N1CCC(C(C)C(=O)NCCc2c[nH]c3ccccc23)CC1` (stereo not given) came in with an RP-LC retention time of 858 s.

`CC1CCc2onc(C(=O)N(C)Cc3ccccc3)c2C1` (stereo not given) showed an RP-LC retention time of 1020 s.

`CC(=O)c1cccc(NC(=O)c2nc(N(C)C)c3c(C)cc(C)nc3n2)c1` showed an RP-LC retention time of 564 s.

`CN(C)C(=O)c1n[nH]c2c1CN(C(=O)c1cc(F)ccc1F)CC2`: the RP-LC retention time turned out to be 617 s.

For the molecule `CC(=O)Oc1ccc(OC(C)=O)c2c1CC1(C)OC1(C)C2` (stereo not given), the RP-LC retention time amounted to 703 s.

In turn, `CCOc1ccc(CNC(=O)c2snc(C(=O)NCc3ccc(F)cc3)c2N)cc1` gave an RP-LC retention time of 1040 s.

In turn, `COCCCNC(=O)CN1C(=O)C2CCCCN2c2ccc(C(=O)N3CCCCC3)cc21` (stereo not given) came in with an RP-LC retention time of 729 s.

Molecule `O=C1CCN(C(=O)c2ccoc2)CCCCCCN1` had an RP-LC retention time of 617 s.

Molecule `CN1C(=O)Cc2cc(C(=O)NCc3ccccc3C(F)(F)F)ccc21` showed an RP-LC retention time of 773 s.

`COc1ccccc1CNS(=O)(=O)c1cccc(-c2nc(-c3ccccc3)no2)c1` had an RP-LC retention time of 1150 s.

`CCCCNC(=O)Nc1ccccc1CC` gave an RP-LC retention time of 870 s.

`CCc1noc(-c2ccc(SCC(=O)N3CCC(C(N)=O)CC3)nc2)n1` had an RP-LC retention time of 639 s.

Take `Cc1cc(C2CCCN2C(=O)Nc2cccc(C)c2C)no1` (stereo not given): the RP-LC retention time came out at 774 s.

In turn, `CCNC(=O)c1n[nH]c2c1CC(C(C)(C)C)CC2` (stereo not given) yielded an RP-LC retention time of 840 s.

The molecule `O=C(NC1CCN(c2cc(-c3ccc(F)cc3)[nH]n2)C1)c1ccc(Br)cc1` (stereo not given) gave an RP-LC retention time of 864 s.

For the molecule `Cc1ccc(S(=O)(=O)NCCCC(=O)NCc2ccccc2)cc1`, the RP-LC retention time worked out at 732 s.

For `Cc1cccc(-c2noc(-c3nnn(Cc4nc(-c5cccc(Cl)c5)oc4C)c3C)n2)c1`, the RP-LC retention time turned out to be 1000 s.

As to `CC(C)NC(=O)NCC1Cn2cccc2C(=O)N1Cc1ccccc1` (stereo not given), the RP-LC retention time came to 696 s.

`O=C1[C@H]2CN(Cc3ccc(Cl)c(F)c3)C[C@H]2C(=O)N1CCc1ccccc1` gave an RP-LC retention time of 901 s.

`Cc1cc(C)cc(NC(=O)NC2CCN(c3ccc(F)c(C)c3)C2=O)c1` (stereo not given) displayed an RP-LC retention time of 874 s.

Consider `Cc1onc(-c2cccnc2)c1C(=O)Nc1ccc(Br)cc1F`, for which the RP-LC retention time worked out at 798 s.

`Cc1ccccc1-c1cc2c(=O)n(Cc3nc(-c4ccccc4)no3)ccn2n1` registered an RP-LC retention time of 1050 s.

In turn, `COc1ccc(Cc2c(C)nn(-c3nc(C)c(C(=O)N4CCOCC4)s3)c2C)cc1` came in with an RP-LC retention time of 1020 s.

`COc1cccc(-c2cc(C(=O)N3CCN(c4ccc(N5CCOCC5)nn4)CC3)[nH]n2)c1` displayed an RP-LC retention time of 610 s.

The molecule `O=C(c1ccc2c(c1)OCO2)N1CCN(c2cc(-c3ccc(F)cc3)[nH]n2)CC1` returned an RP-LC retention time of 772 s.

As for `CCOc1ccc(NC(=O)c2cnc(N3CCN(c4ccc(OC)cc4)CC3)nc2N)cc1`, the RP-LC retention time stood at 767 s.

Turning to `O=C(NCCc1csc(C2CCCN(C(=O)C3CCC3)C2)n1)C1CC1` (stereo not given), the RP-LC retention time stood at 691 s.

Consider `CCOc1ccc(-c2noc(Cc3nnc(-c4cccc(Cl)c4)o3)n2)cc1`, for which the RP-LC retention time turned out to be 1140 s.

With `COC(=O)c1ccccc1NC(=O)C1CCCN(c2nc3c(s2)c(C)nn3-c2ccccc2)C1` (stereo not given), the RP-LC retention time was determined as 1380 s.

Molecule `COC[C@@H]1CN(C(=O)c2cc3cc(Cl)ccc3[nH]2)C[C@H]1C(N)=O` displayed an RP-LC retention time of 672 s.

For the molecule `COc1ccc(CNC(=O)C2CCCN(c3cnc4nccnc4c3)C2)cc1` (stereo not given), the RP-LC retention time is 676 s.

Turning to `Cc1ccc(Nc2nc(N)nc(CN3CCC(C(N)=O)CC3)n2)cc1`, the RP-LC retention time stood at 565 s.

In the case of `CN1CCC(NC(=O)c2cccc3c2CCN3C(=O)c2ccc(F)cc2)CC1`, the RP-LC retention time stood at 602 s.

On to `CCCCNC(=O)C(C)Sc1nc2nc(C)cc(C)n2n1` (stereo not given), for which the RP-LC retention time was 679 s.

Consider `O=C(Cc1nnc2c(-c3nc(C4CC4)no3)cccn12)NC1CCCCCC1`, for which the RP-LC retention time worked out at 720 s.

`Cc1ccc(CNC(=O)C2(C)CCN(S(=O)(=O)c3ccc(Cl)cc3)CC2)cc1` registered an RP-LC retention time of 615 s.

Molecule `O=C(CCC1CCN(S(=O)(=O)c2ccccc2)CC1)NC1CCCCCC1` gave an RP-LC retention time of 958 s.

Regarding `O=C(NCCc1csc(-c2cccc(F)c2)n1)C1CCCC1`, the RP-LC retention time came out at 832 s.

Take `CCN1CCN(C(=O)c2ccc(-c3ccc4c(c3)CCN4C(C)=O)cc2)CC1`: the RP-LC retention time came out at 607 s.

In the case of `CC(C)c1nnc(C2CCN(C(=O)c3ccc(S(=O)(=O)N4CCOCC4)cc3)CC2)o1`, the RP-LC retention time is 659 s.

The molecule `Cc1sc2ncnc(SCC(=O)c3ccc4c(c3)OCCO4)c2c1C` registered an RP-LC retention time of 1040 s.

As for `Cc1cccc(N2CCN(c3ncc(S(=O)(=O)c4ccc(C)c(C)c4)c(N)n3)CC2)c1`, the RP-LC retention time turned out to be 1190 s.

`CC(C)c1cc(C2CCCN2C(=O)c2cccs2)no1` (stereo not given): the RP-LC retention time was 862 s.

Consider `Cc1nn(-c2ccccc2)c(C)c1S(=O)(=O)N1CCC(C(=O)NC2CCCCCCC2)CC1`, for which the RP-LC retention time was determined as 1050 s.

Regarding `CCc1noc(C2(NC(=O)c3cccc(N(C)C)c3)CCCCC2)n1`, the RP-LC retention time was 867 s.

`CN(C)C(=O)c1ccc2c(c1)N(CC(=O)NC1CCCCCC1)C(=O)C1CCCCN21` (stereo not given) returned an RP-LC retention time of 801 s.
